These results are taken from patent US20080194482A1, “Selective Apac2 Receptor Peptide Agonists” (priority 2005, published 2008).

SMILES strings stand for the structures. Square brackets hold non-standard residues; d marks the D form. Peptide text beside a SMILES is read from it. * marks the point of attachment. Orn = NCCC[C@H](N)C(=O)O; Hexanoyl = CCCCCC(=O)*; Aib = CC(C)(N)C(=O)O Bounds are passed on as bounds.

The target of data set [1] is T1, rat VPAC1 receptor (Rattus norvegicus, UniProt P30083).
T1 construct: expressed in transfected cells; host or cells: CHO-PO (transient, Lipofectamine)
T1 sequence (P30083 31-459): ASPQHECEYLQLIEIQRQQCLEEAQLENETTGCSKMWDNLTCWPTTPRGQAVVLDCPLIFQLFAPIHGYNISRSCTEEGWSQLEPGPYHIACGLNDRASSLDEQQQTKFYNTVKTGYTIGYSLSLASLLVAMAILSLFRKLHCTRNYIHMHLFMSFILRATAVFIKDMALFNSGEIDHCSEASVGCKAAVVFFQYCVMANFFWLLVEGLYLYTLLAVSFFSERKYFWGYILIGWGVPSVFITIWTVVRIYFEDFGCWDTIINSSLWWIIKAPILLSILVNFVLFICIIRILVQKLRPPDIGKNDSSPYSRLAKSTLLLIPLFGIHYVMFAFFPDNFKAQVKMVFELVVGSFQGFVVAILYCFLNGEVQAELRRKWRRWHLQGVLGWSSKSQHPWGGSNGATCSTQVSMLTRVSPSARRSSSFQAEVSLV
As to the kind of experiment: DiscoveRx cAMP assay, in vitro potency at rat VPAC1 receptor. The class given is cell-based. The note with it: CHO-PO cells transiently transfected with rat VPAC1; cAMP generation; mean of two independent runs. Here is the method:
(§1) DiscoveRx: CHO-PO cells are transiently transfected with rat VPAC1 or VPAC2 receptor DNA using commercially available transfection reagents (Lipofectamine from Invitrogen). The cells are seeded at a density of 10,000/well in a 96-well plate and are allowed to grow for 3 days in […] culture medium. At day 3, the assay is performed.
(§2) On the day of the experiment, the medium is removed. Also, the cells are washed twice. The cells are incubated in assay buffer plus IBMX for 15 minutes at room temperature. Afterwards, the stimuli are added and are dissolved in assay buffer. The stimuli are present for 30 minutes. Then, the assay buffer is gently removed. The cell lysis reagent of the DiscoveRx cAMP kit is added. Thereafter, the standard protocol for developing the cAMP signal as described by the manufacturer is used (DiscoveRx Inc., USA). EC50 values for cAMP generation are calculated from the raw signal or are based on absolute cAMP levels as determined by a standard curve performed on each plate.
(§3) Results for each agonist are the mean of two independent runs. Rat VPAC1 and VPAC2 results are only generated using the DiscoveRx assay.

Data set [2] addresses T2, rat VPAC2 receptor (Rattus norvegicus, UniProt P35000).
T2 construct: expressed in transfected cells; host or cells: CHO-PO (transient, Lipofectamine)
T2 sequence (P35000 23-437): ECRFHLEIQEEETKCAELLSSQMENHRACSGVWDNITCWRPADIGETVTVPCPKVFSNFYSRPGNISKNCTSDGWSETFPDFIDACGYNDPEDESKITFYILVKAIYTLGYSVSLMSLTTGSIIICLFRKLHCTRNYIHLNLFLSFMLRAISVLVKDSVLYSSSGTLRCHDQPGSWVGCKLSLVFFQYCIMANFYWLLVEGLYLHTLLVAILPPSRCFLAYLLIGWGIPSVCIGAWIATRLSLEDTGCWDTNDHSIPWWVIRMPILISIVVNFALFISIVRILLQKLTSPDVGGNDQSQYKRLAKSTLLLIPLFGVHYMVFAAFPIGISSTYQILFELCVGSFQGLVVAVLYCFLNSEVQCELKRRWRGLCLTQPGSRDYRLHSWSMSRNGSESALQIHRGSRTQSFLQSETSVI
As to the kind of experiment: DiscoveRx cAMP assay, in vitro potency at rat VPAC2 receptor. The format is cell-based. Conditions: CHO-PO cells transiently transfected with rat VPAC2; cAMP generation; mean of two independent runs. Here is the method: as §1, §2, §3

Data set [3] deals with T3, human VPAC2 (Homo sapiens, UniProt P41587).
T3 construct: expressed in transfected cells
T3 sequence (P41587 24-438): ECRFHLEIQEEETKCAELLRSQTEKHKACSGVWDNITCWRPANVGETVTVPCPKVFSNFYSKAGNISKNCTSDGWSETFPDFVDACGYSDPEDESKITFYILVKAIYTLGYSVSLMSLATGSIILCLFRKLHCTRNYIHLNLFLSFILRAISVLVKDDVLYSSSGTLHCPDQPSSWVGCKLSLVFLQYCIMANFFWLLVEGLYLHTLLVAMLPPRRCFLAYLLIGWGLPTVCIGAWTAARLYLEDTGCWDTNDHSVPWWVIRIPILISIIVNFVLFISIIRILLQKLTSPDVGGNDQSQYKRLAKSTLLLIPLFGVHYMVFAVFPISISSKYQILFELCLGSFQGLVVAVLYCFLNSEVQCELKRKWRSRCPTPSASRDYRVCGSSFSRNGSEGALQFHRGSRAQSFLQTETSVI
As to the kind of experiment: Alpha screen cAMP assay, in vitro potency at human VPAC2 receptor. The format is cell-based. The note with it: cAMP generation; single result from two analyses in a single run, some values average of more than one experiment.

The target of data set [4] is T4, human PAC1 (Homo sapiens, UniProt P41586).
T4 construct: expressed in transfected cells
T4 sequence (P41586 21-468): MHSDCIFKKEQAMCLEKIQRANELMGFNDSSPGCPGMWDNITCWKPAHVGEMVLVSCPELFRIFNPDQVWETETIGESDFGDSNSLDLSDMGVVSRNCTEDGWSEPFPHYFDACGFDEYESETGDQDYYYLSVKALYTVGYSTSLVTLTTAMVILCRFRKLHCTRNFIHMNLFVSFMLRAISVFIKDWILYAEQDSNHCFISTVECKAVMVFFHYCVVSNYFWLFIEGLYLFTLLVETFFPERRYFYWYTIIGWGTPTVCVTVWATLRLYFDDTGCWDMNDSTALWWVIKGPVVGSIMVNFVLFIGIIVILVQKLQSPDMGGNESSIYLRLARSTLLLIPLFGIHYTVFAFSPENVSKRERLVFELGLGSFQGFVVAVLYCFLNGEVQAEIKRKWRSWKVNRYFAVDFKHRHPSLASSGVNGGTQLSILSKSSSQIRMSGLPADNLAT
As to the kind of experiment: Filter binding assay, 125I-labeled PACAP-27 tracer, PAC1 membranes. The note with it: read-out: Human PAC1 Receptor Binding (IC50; nM).

Data set [5] has as its target T3, human VPAC2. As to the kind of experiment: Filter binding assay, 125I-labeled VIP tracer, VPAC2 membranes. The note with it: read-out: Human VPAC2 Receptor Binding (IC50; nM).
Experimental: For this assay, the solutions and equipment include:
Presoak solution: 0.5% Polyethyleneamine in Aqua dest
Buffer for flushing filter plates: 25 mM HEPES pH 7.4
Blocking buffer: 25 mM HEPES pH 7.4; 0.2% protease free BSA
Assay buffer: 25 mM HEPES pH 7.4; 0.5% protease free BSA
Dilution and assay plate: PS-Microplate, U form
Filtration Plate: Multiscreen FB Opaque Plate; 1.0 μM Type B Glasfiber filter
In order to prepare the filter plates, the presoak solution is aspirated by vacuum filtration. The plates are flushed twice with 200 μL flush buffer. 200 μL blocking buffer is added to the filter plate. The filter plate is then incubated with 200 μL presoak solution for 1 hour at room temperature.
The assay plate is filled with 25 μL assay buffer, 25 μL membranes (2.5 μg) suspended in assay buffer, 25 μL compound (agonist) in assay buffer, and 25 μL tracer (about 40000 cpm) in assay buffer. The filled plate is incubated for 1 hour with shaking.
The transfer from assay plate to filter plate is conducted. The blocking buffer is aspirated by vacuum filtration and washed two times with flush buffer. 90 μL is transferred from the assay plate to the filter plate. The 90 μL transferred from assay plate is aspirated and washed three times with 200 μL flush buffer. The plastic support is removed. It is dried for 1 hour at 60° C. 30 μL Microscint is added. The count is performed.
In data set [6] the target is T5, human VPAC1 (Homo sapiens, UniProt P32241).
T5 construct: expressed in transfected cells
T5 sequence (P32241 31-457): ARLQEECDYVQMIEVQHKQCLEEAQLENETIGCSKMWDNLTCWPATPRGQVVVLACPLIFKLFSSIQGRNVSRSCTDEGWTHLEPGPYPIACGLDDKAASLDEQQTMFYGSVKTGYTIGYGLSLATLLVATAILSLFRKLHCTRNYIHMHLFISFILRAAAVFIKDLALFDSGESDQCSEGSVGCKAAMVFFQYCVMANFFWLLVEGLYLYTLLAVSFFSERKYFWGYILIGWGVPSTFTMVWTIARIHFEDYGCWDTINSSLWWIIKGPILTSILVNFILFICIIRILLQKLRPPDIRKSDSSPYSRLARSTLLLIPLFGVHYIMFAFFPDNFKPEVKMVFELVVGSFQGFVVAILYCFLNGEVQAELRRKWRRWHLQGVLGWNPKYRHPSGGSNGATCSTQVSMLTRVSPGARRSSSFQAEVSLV
As to the kind of experiment: Filter binding assay, 125I-labeled VIP tracer, VPAC1 membranes. Conditions: read-out: Human VPAC1 Receptor Binding (IC50; nM).

The nature of data set [7]: Rat serum stability (activity remaining, CHO-VPAC2 DiscoveRx read-out). The class given is in vitro ADME. The method, boiled down: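 Peptides preincubated overnight in rat serum at 37 °C without aprotinin versus 4 °C with aprotinin, then tested as 11-point 5× dilutions in duplicate on CHO-VPAC2 cells, 30 min at RT. cAMP measured by DiscoveRx kit against standards; EC50 derived for each aliquot.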

For the compound `CCCCCC(=O)N[C@@H](Cc1c[nH]cn1)C(=O)N[C@@H](CO)C(=O)N[C@@H](CC(=O)O)C(=O)N[C@@H](C)C(=O)N[C@H](C(=O)N[C@@H](Cc1ccccc1)C(=O)N[C@H](C(=O)N[C@@H](CC(=O)O)C(=O)N[C@@H](CCC(N)=O)C(=O)N[C@@H](Cc1ccc(OC)cc1)C(=O)N[C@H](C(=O)N[C@@H](CCCN)C(=O)N[C@@H](CC(C)C)C(=O)N[C@@H](CCCNC(=N)N)C(=O)NC(C)(C)C(=O)N[C@@H](CCC(N)=O)C(=O)N[C@@H](CC(C)C)C(=O)N[C@@H](C)C(=O)N[C@@H](C)C(=O)NC(C)(C)C(=O)N[C@@H](CCCN)C(=O)N[C@@H](Cc1ccc(O)cc1)C(=O)N[C@@H](CC(C)C)C(=O)N[C@@H](CCC(N)=O)C(=O)N[C@@H](CO)C(=O)N[C@H](C(=O)N[C@@H](CCCN)C(=O)N[C@@H](CCCN)C(=O)NCC(=O)NCC(=O)N1CCC[C@H]1C(=O)N[C@@H](CO)C(=O)N[C@@H](CO)C(=O)NCC(=O)N[C@@H](C)C(=O)N1CCC[C@H]1C(=O)N1CCC[C@H]1C(=O)N1CCC[C@H]1C(=O)N[C@@H](CO)C(=O)O)[C@@H](C)CC)[C@@H](C)O)[C@@H](C)O)C(C)C` [Agonist P394] (Hexanoyl-HSDAVFTDQY(Me)T[Orn]LR[Aib]QLAA[Aib][Orn]YLQSI[Orn][Orn]GGPSSGAPPPS-OH; C-terminus assumed), the concentration for a half-maximal effect (EC50) in data set [1] is 0.48 nM; in data set [2], 0.03 nM; in data set [3] it was 0.11 nM. For the same compound, the IC50 in data set [4] was more than 25000 nM.
In the case of `CCCCCC(=O)N[C@@H](Cc1c[nH]cn1)C(=O)N[C@@H](CO)C(=O)N[C@@H](CC(=O)O)C(=O)N[C@@H](C)C(=O)N[C@H](C(=O)N[C@@H](Cc1ccccc1)C(=O)N[C@H](C(=O)N[C@@H](CC(=O)O)C(=O)N[C@@H](CC(N)=O)C(=O)N[C@@H](Cc1ccc(O)cc1)C(=O)N[C@H](C(=O)N[C@@H](CCCN)C(=O)N[C@@H](CC(C)C)C(=O)N[C@@H](CCCNC(=N)N)C(=O)NC(C)(C)C(=O)N[C@@H](CCC(N)=O)C(=O)N[C@H](C(=O)N[C@@H](CO)C(=O)N[C@@H](C)C(=O)NC(C)(C)C(=O)N[C@@H](CCCCN)C(=O)N[C@@H](Cc1ccc(O)cc1)C(=O)N[C@@H](CC(C)C)C(=O)N[C@@H](CCC(N)=O)C(=O)N[C@@H](CO)C(=O)N[C@H](C(=O)N[C@@H](CCCN)C(=O)N[C@@H](CC(N)=O)C(=O)N[C@@H](CCCN)C(=O)NCC(=O)NCC(=O)N1CCC[C@H]1C(=O)N[C@@H](CO)C(=O)N[C@@H](CO)C(=O)NCC(=O)N[C@@H](C)C(=O)N1CCC[C@H]1C(=O)N1CCC[C@H]1C(=O)N1CCC[C@H]1C(=O)N[C@@H](CO)C(=O)O)[C@@H](C)CC)C(C)C)[C@@H](C)O)[C@@H](C)O)C(C)C` [Agonist P388] (Hexanoyl-HSDAVFTDNYT[Orn]LR[Aib]QVSA[Aib]KYLQSI[Orn]N[Orn]GGPSSGAPPPS-OH; C-terminus assumed), the 50% inhibitory concentration (IC50) in data set [5] was not below 100 nM; in data set [6], more than 3000 nM; in data set [4] it was more than 25000 nM. In addition, the EC50 in data set [1] is more than 2000 nM.
For `CCCCCC(=O)N[C@@H](Cc1c[nH]cn1)C(=O)N[C@@H](CO)C(=O)N[C@@H](CC(=O)O)C(=O)N[C@@H](C)C(=O)N[C@H](C(=O)N[C@@H](Cc1ccccc1)C(=O)N[C@H](C(=O)N[C@@H](CC(=O)O)C(=O)N[C@@H](CC(N)=O)C(=O)N[C@@H](Cc1ccc(O)cc1)C(=O)N[C@H](C(=O)N[C@@H](CCCN)C(=O)N[C@@H](CC(C)C)C(=O)N[C@@H](CCCNC(=N)N)C(=O)NC(C)(C)C(=O)N[C@@H](CCC(N)=O)C(=O)N[C@H](C(=O)N[C@@H](C)C(=O)N[C@@H](C)C(=O)NC(C)(C)C(=O)N[C@@H](CCCCN)C(=O)N[C@@H](Cc1ccc(O)cc1)C(=O)N[C@@H](CO)C(=O)N[C@@H](CCC(N)=O)C(=O)N[C@@H](CO)C(=O)N[C@H](C(=O)N[C@@H](CCCN)C(=O)N[C@@H](CC(N)=O)C(=O)N[C@@H](CCCN)C(=O)NCC(=O)NCC(=O)N1CCC[C@H]1C(=O)N[C@@H](CO)C(=O)N[C@@H](CO)C(=O)NCC(=O)N[C@@H](C)C(=O)N1CCC[C@H]1C(=O)N1CCC[C@H]1C(=O)N1CCC[C@H]1C(=O)N[C@@H](CO)C(=O)O)[C@@H](C)CC)C(C)C)[C@@H](C)O)[C@@H](C)O)C(C)C` [Agonist P384] (Hexanoyl-HSDAVFTDNYT[Orn]LR[Aib]QVAA[Aib]KYSQSI[Orn]N[Orn]GGPSSGAPPPS-OH; C-terminus assumed), the “Rat Serum Stability (estimated purity in % after overnight incub.)” value in data set [7] is listed as 96.45%. Further, the 50% inhibitory concentration (IC50) is more than 3000 nM in data set [6] and more than 25000 nM in data set [4]. Besides, the EC50 in data set [1] is more than 600 nM.
